Source: PubChem BioAssay (NCI)
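A five-concentration, 48-hour dose response in 96-well plates underlies each endpoint, interpolated linearly between surrounding concentrations. TGI: total growth inhibition.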

Tests used:
Experiment in all cases: NCI-60 cell line screen, 48 h
786-0 renal = tested on: 786-0 renal
A498 renal = tested on: A498 renal
A549 NSCLC = tested on: A549 NSCLC
ACHN renal = tested on: ACHN renal
BT-549 breast = tested on: BT-549 breast
CAKI-1 renal = tested on: CAKI-1 renal
CCRF-CEM leukemia = tested on: CCRF-CEM leukemia
COLO 205 colon = tested on: COLO 205 colon
DU-145 prostate = tested on: DU-145 prostate
EKVX NSCLC = tested on: EKVX NSCLC
HCC-2998 colon = tested on: HCC-2998 colon
HCT-116 colon = tested on: HCT-116 colon
HCT-15 colon = tested on: HCT-15 colon
HOP-62 NSCLC = tested on: HOP-62 NSCLC
HOP-92 NSCLC = tested on: HOP-92 NSCLC
HT29 colon = tested on: HT29 colon
IGROV1 ovarian = tested on: IGROV1 ovarian
K-562 leukemia = tested on: K-562 leukemia
KM12 colon = tested on: KM12 colon
LOX IMVI melanoma = tested on: LOX IMVI melanoma
M14 melanoma = tested on: M14 melanoma
MALME-3M melanoma = tested on: MALME-3M melanoma
MCF7 breast = tested on: MCF7 breast
MDA-MB-231 breast = tested on: MDA-MB-231 breast
MDA-MB-435 = tested on: MDA-MB-435
MDA-N = tested on: MDA-N
MOLT-4 leukemia = tested on: MOLT-4 leukemia
NCI-H226 lung = tested on: NCI-H226 lung
NCI-H23 lung = tested on: NCI-H23 lung
NCI-H522 lung = tested on: NCI-H522 lung
NCI/ADR-RES ovarian = tested on: NCI/ADR-RES ovarian
OVCAR-3 ovarian = tested on: OVCAR-3 ovarian
OVCAR-4 ovarian = tested on: OVCAR-4 ovarian
OVCAR-5 ovarian = tested on: OVCAR-5 ovarian
OVCAR-8 ovarian = tested on: OVCAR-8 ovarian
PC-3 prostate = tested on: PC-3 prostate
RPMI-8226 leukemia = tested on: RPMI-8226 leukemia
RXF 393 renal = tested on: RXF 393 renal
SF-268 CNS = tested on: SF-268 CNS
SF-295 CNS = tested on: SF-295 CNS
SF-539 CNS = tested on: SF-539 CNS
SK-MEL-2 melanoma = tested on: SK-MEL-2 melanoma
SK-MEL-28 melanoma = tested on: SK-MEL-28 melanoma
SK-MEL-5 melanoma = tested on: SK-MEL-5 melanoma
SK-OV-3 ovarian = tested on: SK-OV-3 ovarian
SN12C renal = tested on: SN12C renal
SNB-19 CNS = tested on: SNB-19 CNS
SR leukemia = tested on: SR leukemia
SW-620 colon = tested on: SW-620 colon
T-47D breast = tested on: T-47D breast
TK-10 renal = tested on: TK-10 renal
U251 CNS = tested on: U251 CNS
UACC-257 melanoma = tested on: UACC-257 melanoma
UACC-62 melanoma = tested on: UACC-62 melanoma
UO-31 renal = tested on: UO-31 renal
HL-60(TB) leukemia = tested on: HL-60(TB) leukemia
NCI-H460 lung = tested on: NCI-H460 lung
SNB-75 CNS = tested on: SNB-75 CNS

## CC1(C)C[C@H]2[C@H](O)C(CO)=C3C(=O)[C@@H](O)[C@]3(C)[C@H]2C1
786-0 renal
  TGI: > 100 µM
A498 renal
  TGI: > 100 µM
A549 NSCLC
  TGI: > 100 µM
ACHN renal
  TGI: > 100 µM
BT-549 breast
  TGI: > 100 µM
CAKI-1 renal
  TGI: > 100 µM
CCRF-CEM leukemia
  TGI: 84 µM
COLO 205 colon
  TGI: > 100 µM
DU-145 prostate
  TGI: > 100 µM
EKVX NSCLC
  TGI: > 100 µM
HCC-2998 colon
  TGI: > 100 µM
HCT-116 colon
  TGI: > 100 µM
HCT-15 colon
  TGI: > 100 µM
HOP-62 NSCLC
  TGI: > 100 µM
HOP-92 NSCLC
  TGI: > 100 µM
HT29 colon
  TGI: > 100 µM
IGROV1 ovarian
  TGI: > 100 µM
K-562 leukemia
  TGI: > 100 µM
KM12 colon
  TGI: > 100 µM
LOX IMVI melanoma
  TGI: > 100 µM
M14 melanoma
  TGI: > 100 µM
MALME-3M melanoma
  TGI: > 100 µM
MCF7 breast
  TGI: > 100 µM
MDA-MB-231 breast
  TGI: > 100 µM
MDA-MB-435
  TGI: > 100 µM
MDA-N
  TGI: > 100 µM
MOLT-4 leukemia
  TGI: 53.3 µM
NCI-H226 lung
  TGI: > 100 µM
NCI-H23 lung
  TGI: > 100 µM
NCI-H522 lung
  TGI: > 100 µM
NCI/ADR-RES ovarian
  TGI: > 100 µM
OVCAR-3 ovarian
  TGI: > 100 µM
OVCAR-4 ovarian
  TGI: > 100 µM
OVCAR-5 ovarian
  TGI: > 100 µM
OVCAR-8 ovarian
  TGI: > 100 µM
PC-3 prostate
  TGI: > 100 µM
RPMI-8226 leukemia
  TGI: > 100 µM
RXF 393 renal
  TGI: > 100 µM
SF-268 CNS
  TGI: > 100 µM
SF-295 CNS
  TGI: > 100 µM
SF-539 CNS
  TGI: > 100 µM
SK-MEL-2 melanoma
  TGI: > 100 µM
SK-MEL-28 melanoma
  TGI: > 100 µM
SK-MEL-5 melanoma
  TGI: > 100 µM
SK-OV-3 ovarian
  TGI: > 100 µM
SN12C renal
  TGI: > 100 µM
SNB-19 CNS
  TGI: > 100 µM
SR leukemia
  TGI: > 100 µM
SW-620 colon
  TGI: > 100 µM
T-47D breast
  TGI: > 100 µM
TK-10 renal
  TGI: > 100 µM
U251 CNS
  TGI: > 100 µM
UACC-257 melanoma
  TGI: > 100 µM
UACC-62 melanoma
  TGI: > 100 µM
UO-31 renal
  TGI: > 100 µM

## CC(C)(C)C1=NC(=S)SC2=NC(=O)C3(NN21)c1ccccc1-c1ccccc13
786-0 renal
  TGI: > 10 µM
A549 NSCLC
  TGI: > 10 µM
ACHN renal
  TGI: > 10 µM
BT-549 breast
  TGI: > 10 µM
CAKI-1 renal
  TGI: > 10 µM
CCRF-CEM leukemia
  TGI: > 10 µM
COLO 205 colon
  TGI: > 10 µM
DU-145 prostate
  TGI: > 10 µM
EKVX NSCLC
  TGI: > 10 µM
HCC-2998 colon
  TGI: > 10 µM
HCT-15 colon
  TGI: > 10 µM
HL-60(TB) leukemia
  TGI: > 10 µM
HOP-62 NSCLC
  TGI: > 10 µM
HOP-92 NSCLC
  TGI: > 10 µM
HT29 colon
  TGI: > 10 µM
IGROV1 ovarian
  TGI: > 10 µM
K-562 leukemia
  TGI: > 10 µM
KM12 colon
  TGI: > 10 µM
LOX IMVI melanoma
  TGI: > 10 µM
M14 melanoma
  TGI: > 10 µM
MALME-3M melanoma
  TGI: > 10 µM
MCF7 breast
  TGI: > 10 µM
MDA-MB-231 breast
  TGI: > 10 µM
MDA-MB-435
  TGI: > 10 µM
MDA-N
  TGI: > 10 µM
MOLT-4 leukemia
  TGI: > 10 µM
NCI-H226 lung
  TGI: > 10 µM
NCI-H23 lung
  TGI: > 10 µM
NCI-H460 lung
  TGI: > 10 µM
NCI-H522 lung
  TGI: > 10 µM
NCI/ADR-RES ovarian
  TGI: > 10 µM
OVCAR-4 ovarian
  TGI: > 10 µM
OVCAR-8 ovarian
  TGI: > 10 µM
PC-3 prostate
  TGI: > 10 µM
RPMI-8226 leukemia
  TGI: > 10 µM
RXF 393 renal
  TGI: > 10 µM
SF-268 CNS
  TGI: > 10 µM
SF-295 CNS
  TGI: > 10 µM
SK-MEL-28 melanoma
  TGI: > 10 µM
SK-MEL-5 melanoma
  TGI: > 10 µM
SK-OV-3 ovarian
  TGI: > 10 µM
SN12C renal
  TGI: > 10 µM
SNB-19 CNS
  TGI: > 10 µM
SNB-75 CNS
  TGI: > 10 µM
SR leukemia
  TGI: > 10 µM
SW-620 colon
  TGI: > 10 µM
T-47D breast
  TGI: > 10 µM
TK-10 renal
  TGI: > 10 µM
UACC-257 melanoma
  TGI: > 10 µM
UACC-62 melanoma
  TGI: > 10 µM
UO-31 renal
  TGI: > 10 µM
